# Reference: publication PMC9387934, “Randomized single oral dose phase 1 study of safety, tolerability, and pharmacokinetics of Iminosugar UV-4 Hydrochloride (UV-4B) in healthy subjects” (PLoS Neglected Tropical Diseases, 2022)
# Counter-ions that a name gives are not always drawn.
# Assay: Seven-day repeat dose non-GLP study in rats (UV4-COV-0045)
# Format: in vivo, rat
# Details: for a 60 kg human
# Experimental: The seven-day repeat dose study in rats was conducted at 10 mg/kg/dose TID (30 mg/kg/day), 25 mg/kg/dose TID (75 mg/kg/day), and 60 mg/kg/dose TID (180 mg/kg/day).
# At 10 mg/kg/dose, mild to moderate clinical hematology and clinical chemistry changes and histopathological changes in the gastrointestinal tract (GI) similar to dogs and mice were observed; therefore this dose exceeded the no observed effect level (NOEL). At […]
# 60 mg/kg/dose there were similar findings to mice and dogs but a unique finding of possible […]
# skin, paws and/or feet. These findings appeared within 120 minutes of treatment with the first or second daily dose 60 mg/kg/dose (TID) on Day 1 or Day 2. This response was transient and self-limiting, and was not observed after Day 2 in either the single or repeated doses. […]
# The inverted AST/ALT ratio […]
# and lymphocyte depletion were reversible. Thymus weight decrease in females was reversible but thymus weight decreases in males were not. However, because the apparent […]
# microscopic thymus findings, thymus weight differences at the recovery necropsy were considered not toxicologically important. In mice at 25 mg/kg/dose (75 mg/kg/day) there were decreased thymus weights (males), follicular epithelium vacuolation in the thyroid, and lymphoid depletion of the thymus (males). […]
# Daily exposure [calculated as 3 x AUC(0-8)] is estimated at 32,820 ng•h/mL. […]
compound,measurement,value
"COCCCCCCCCCN1C[C@H](O)[C@@H](O)[C@H](O)[C@H]1CO [UV-4B, N-(9’-methoxynonyl)-1-deoxynojirimycin hydrochloride]",HED of 60 mg/kg/dose in rats,580 mg
